Measured values: patent US20220016102A1, “ER PROTEIN REGULATORS AND USE THEREOF” (ShanghaiTech University, priority 2018, published 2022)

These compounds were tested against T1, ER protein (Homo sapiens, UniProt P03372) (assay: Western blotting analysis of ER protein degradation in T47D cell line). Conditions: T47D cells, FIGS. 1(A)-(O).
T1 sequence (P03372 1-595): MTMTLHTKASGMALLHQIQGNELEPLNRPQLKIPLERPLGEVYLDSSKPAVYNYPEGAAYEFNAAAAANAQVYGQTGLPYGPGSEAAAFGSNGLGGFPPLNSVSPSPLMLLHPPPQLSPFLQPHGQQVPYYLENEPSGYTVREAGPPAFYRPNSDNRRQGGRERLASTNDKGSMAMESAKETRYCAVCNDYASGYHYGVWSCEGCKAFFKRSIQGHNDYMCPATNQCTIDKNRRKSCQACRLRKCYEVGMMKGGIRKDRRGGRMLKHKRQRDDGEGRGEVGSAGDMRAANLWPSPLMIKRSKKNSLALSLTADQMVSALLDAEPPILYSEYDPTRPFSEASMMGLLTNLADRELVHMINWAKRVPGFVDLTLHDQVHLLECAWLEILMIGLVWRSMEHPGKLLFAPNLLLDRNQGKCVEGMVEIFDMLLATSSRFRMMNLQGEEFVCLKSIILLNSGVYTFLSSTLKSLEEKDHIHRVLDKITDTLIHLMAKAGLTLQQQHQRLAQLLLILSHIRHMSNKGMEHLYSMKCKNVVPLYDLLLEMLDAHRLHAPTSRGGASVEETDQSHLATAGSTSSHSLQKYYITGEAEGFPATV
Format: cell-based
Design: western blotting detection of the level of intracellular ER protein; endogenous in cells; host or cells: T47D
Procedure: T47D cells were cultured in an incubator with 5% CO2 at 37° C. Complete medium was RPMI1640 supplemented with 10% Foetal bovine serum (FBS), 100 U/ml Penicillin and Streptomycin, and 0.77 μg/mL recombinant human insulin. Western blotting analysis of T47D cell line: • Cells were plated in a 24-well plate at a cell seeding […] of 1.5×10^5 cells/mL, with 1 ml cell suspensions per well. • After 24 h the cells were adherent, and the cells in each well were treated with 1 μL a certain concentration of ER protein regulators of the present disclosure. […] Afterwards, the membranes were block by using the Blocking Buffer, and the antibody incubation and development were performed. (The above procedures were all based on the antibody product manual of the manufacturer) DC50 value (the drug concentration required for degrading proteins by 50%, abbreviated as DC50) reads method: comparing the gray values of the Western blotting bands for the drug treatment with the gray values of the Western blotting band for the DMSO control, and reading the drug concentration range corresponding to the gray value of the Western blotting bands for the drug treatment which is equal to half of the gray value of the Western blotting band for the DMSO control. DC50 value could also be calculated as follows: using software ImageJ to quantify the gray values of the Western blotting bands for the drug treatment, fitting the relationship curve between drug concentrations and gray values, and from the fitted curve, calculating the drug concentration corresponding to half of the gray value of the Western blotting band for the DMSO control.

Row | SMILES | Degradation of the ER protein in the T47D cell line (Western blotting)
1 | NCCOc1ccc(C(=C(CCCl)c2ccccc2)c2ccc(O)cc2)cc1 [Toremifene derivative B, 4-(1-(4-(2-aminoethoxy)phenyl)-4-chloro-2-phenylbut-1-en-1-yl)phenol, reference compound] | did not degrade the ER protein

Same assay, conditions: degradation of ER protein, T47D cells, drug treatment for 16 hours, Western blot gray values vs DMSO control; read-out: DC50 (nM)/T47Dcell line

Row | SMILES | DC50 [nM]
2 | Cc1ncsc1-c1ccc(CNC(=O)[C@@H]2C[C@@H](O)CN2C(=O)[C@@H](NC(=O)CCOCCOCCOCCOCCOCCC(=O)N(C)CCOc2ccc(/C(=C(/CCCl)c3ccccc3)c3ccccc3)cc2)C(C)(C)C)cc1 [SIAIS180022, N1-(2-(4-((Z)-4-chloro-1,2-diphenylbut-1-en-1-yl)phenoxy)ethyl)-N19-((S)-1-((2S,4R)-4-hydroxy-2-((4-(4-methylthiazol-5-yl)benzyl)carbamoyl)pyrrolidin-1-yl)-3,3-dimethyl-1-oxobutan-2-yl)-N1-methyl-4,7,10,13,16-pentaoxanonadecanediamide] | < 50
3 | Cc1ncsc1-c1ccc(CNC(=O)[C@@H]2C[C@@H](O)CN2C(=O)[C@@H](NC(=O)CCCCCCCC(=O)N(C)CCOc2ccc(/C(=C(/CCCl)c3ccccc3)c3ccccc3)cc2)C(C)(C)C)cc1 [SIAIS180035, N1-(2-(4-((Z)-4-chloro-1,2-diphenylbut-1-en-1-yl)phenoxy)ethyl)-N9-((S)-1-((2S,4R)-4-hydroxy-2-((4-(4-methylthiazol-5-yl)benzyl)carbamoyl)pyrrolidin-1-yl)-3,3-dimethyl-1-oxobutan-2-yl)-N1-methylnonanediamide] | < 200
4 | CCC(=C(c1ccc(O)cc1)c1ccc(OCCNC(=O)CCCCCCCCCC(=O)N[C@H](C(=O)N2C[C@H](O)C[C@H]2C(=O)NCc2ccc(-c3scnc3C)cc2)C(C)(C)C)cc1)c1ccc(O)cc1 [SIAIS208169, N1-(2-(4-(1,2-bis(4-hydroxyphenyl)but-1-en-1-yl)phenoxy)ethyl)-N11-((S)-1-((2S,4R)-4-hydroxy-2-((4-(4-methylthiazol-5-yl)benzyl)carbamoyl)pyrrolidin-1-yl)-3,3-dimethyl-1-oxobutan-2-yl)undecanediamide] | < 50
5 | O=C(CCCCNc1cccc2c1C(=O)N(C1CCC(=O)NC1=O)C2=O)NCCOc1ccc(C(=C(CCCl)c2ccccc2)c2ccc(O)cc2)cc1 (centres unmarked) [SIAIS208144, N-(2-(4-(4-chloro-1-(4-hydroxyphenyl)-2-phenylbut-1-en-1-yl)phenoxy)ethyl)-5-((2-(2,6-dioxopiperidin-3-yl)-1,3-dioxoisoindolin-4-yl)amino)pentanamide] | < 100
6 | Cc1ncsc1-c1ccc(CNC(=O)[C@@H]2C[C@@H](O)CN2C(=O)[C@@H](NC(=O)CCc2ccc(CCC(=O)NCCOc3ccc(C(=C(CCCl)c4ccccc4)c4ccc(O)cc4)cc3)cc2)C(C)(C)C)cc1 [SIAIS208127, (2S,4R)-1-((S)-2-(3-(4-(3-((2-(4-(4-chloro-1-(4-hydroxyphenyl)-2-phenylbut-1-en-1-yl)phenoxy)ethyl)amino)-3-oxopropyl)phenyl)propanamido)-3,3-dimethylbutanoyl)-4-hydroxy-N-(4-(4-methylthiazol-5-yl)benzyl)pyrrolidine-2-carboxamide] | < 100
7 | Cc1ncsc1-c1ccc(CNC(=O)[C@@H]2C[C@@H](O)CN2C(=O)[C@@H](NC(=O)CCOCCOCCC(=O)N2CCN(CCOc3ccc(C(=C(CCCl)c4ccccc4)c4ccc(O)cc4)cc3)CC2)C(C)(C)C)cc1 [SIAIS251049, (2S,4R)-1-((S)-2-(3-(2-(3-(4-(2-(4-(4-chloro-1-(4-hydroxyphenyl)-2-phenylbut-1-en-1-yl)phenoxy)ethyl)piperazin-1-yl)-3-oxopropoxy)ethoxy)propanamido)-3,3-dimethylbutanoyl)-4-hydroxy-N-(4-(4-methylthiazol-5-yl)benzyl)pyrrolidine-2-carboxamide] | < 50
8 | O=C(CCCCCCNc1cccc2c1CN(C1CCC(=O)NC1=O)C2=O)NCCOc1ccc(C(=C(CCCl)c2ccccc2)c2ccc(O)cc2)cc1 (centres unmarked) [SIAIS251033, N-(2-(4-(4-chloro-1-(4-hydroxyphenyl)-2-phenylbut-1-en-1-yl)phenoxy)ethyl)-7-((2-(2,6-dioxopiperidin-3-yl)-1-oxoisoindolin-4-yl)amino)heptanamide] | 50
9 | Cc1ncsc1-c1ccc(CNC(=O)[C@@H]2C[C@@H](O)CN2C(=O)[C@@H](NC(=O)CCc2ccc(CCC(=O)N(C)CCOc3ccc(/C(=C(/CCCl)c4ccccc4)c4ccccc4)cc3)cc2)C(C)(C)C)cc1 [SIAIS208125, (2S,4R)-1-((S)-2-(3-(4-(3-((2-(4-((Z)-4-chloro-1,2-diphenylbut-1-en-1-yl)phenoxy)ethyl)(methyl)amino)-3-oxopropyl)phenyl)propanamido)-3,3-dimethylbutanoyl)-4-hydroxy-N-(4-(4-methylthiazol-5-yl)benzyl)pyrrolidine-2-carboxamide] | < 200
10 | Cc1ncsc1-c1ccc(CNC(=O)[C@@H]2C[C@@H](O)CN2C(=O)[C@@H](NC(=O)CCCCCCC(=O)N(C)CCOc2ccc(/C(=C(/CCCl)c3ccccc3)c3ccccc3)cc2)C(C)(C)C)cc1 [SIAIS180033, N1-(2-(4-((Z)-4-chloro-1,2-diphenylbut-1-en-1-yl)phenoxy)ethyl)-N8-((S)-1-((2S,4R)-4-hydroxy-2-((4-(4-methylthiazol-5-yl)benzyl)carbamoyl)pyrrolidin-1-yl)-3,3-dimethyl-1-oxobutan-2-yl)-N1-methyloctanediamide] | < 50
11 | Cc1ncsc1-c1ccc(CNC(=O)[C@@H]2C[C@@H](O)CN2C(=O)[C@@H](NC(=O)CCCC(=O)N2CCN(CCOc3ccc(C(=C(CCCl)c4ccccc4)c4ccc(O)cc4)cc3)CC2)C(C)(C)C)cc1 [SIAIS251042, (2S,4R)-1-((S)-2-(5-(4-(2-(4-(4-chloro-1-(4-hydroxyphenyl)-2-phenylbut-1-en-1-yl)phenoxy)ethyl)piperazin-1-yl)-5-oxopentanamido)-3,3-dimethylbutanoyl)-4-hydroxy-N-(4-(4-methylthiazol-5-yl)benzyl)pyrrolidine-2-carboxamide] | < 50
12 | Cc1ncsc1-c1ccc(CNC(=O)[C@@H]2C[C@@H](O)CN2C(=O)[C@@H](NC(=O)CCCCCC(=O)N(C)CCOc2ccc(/C(=C(/CCCl)c3ccccc3)c3ccccc3)cc2)C(C)(C)C)cc1 [SIAIS180029, N1-(2-(4-((Z)-4-chloro-1,2-diphenylbut-1-en-1-yl)phenoxy)ethyl)-N7-((S)-1-((2S,4R)-4-hydroxy-2-((4-(4-methylthiazol-5-yl)benzyl)carbamoyl)pyrrolidin-1-yl)-3,3-dimethyl-1-oxobutan-2-yl)-N1-methylheptanediamide] | 100
13 | Cc1ncsc1-c1ccc(CNC(=O)[C@@H]2C[C@@H](O)CN2C(=O)[C@@H](NC(=O)CCOCCOCCOCCC(=O)N2CCN(CCOc3ccc(C(=C(CCCl)c4ccccc4)c4ccc(O)cc4)cc3)CC2)C(C)(C)C)cc1 [SIAIS251050, (2S,4R)-1-((S)-2-(tert-butyl)-16-(4-(2-(4-(4-chloro-1-(4-hydroxyphenyl)-2-phenylbut-1-en-1-yl)phenoxy)ethyl)piperazin-1-yl)-4,16-dioxo-7,10,13-trioxa-3-azahexadecanoyl)-4-hydroxy-N-(4-(4-methylthiazol-5-yl)benzyl)pyrrolidine-2-carboxamide] | < 50
14 | Cc1ncsc1-c1ccc(CNC(=O)[C@@H]2C[C@@H](O)CN2C(=O)[C@@H](NC(=O)CCOCCOCCOCCOCCC(=O)N2CCN(CCOc3ccc(C(=C(CCCl)c4ccccc4)c4ccc(O)cc4)cc3)CC2)C(C)(C)C)cc1 [SIAIS251051, (2S,4R)-1-((S)-2-(tert-butyl)-19-(4-(2-(4-(4-chloro-1-(4-hydroxyphenyl)-2-phenylbut-1-en-1-yl)phenoxy)ethyl)piperazin-1-yl)-4,19-dioxo-7,10,13,16-tetraoxa-3-azanonadecanoyl)-4-hydroxy-N-(4-(4-methylthiazol-5-yl)benzyl)pyrrolidine-2-carboxamide] | < 50
